Marks after values point to notes of the source that are not given here.
Experiments:
asthmatic patients = test: sGaw after dry powder inhalation, dose escalating single blind study (Examples 5 and 6); settings: 2 mg theophylline
Experimental: (§1) To test this theory, asthmatic patients are enrolled in a dose escalating single blind study. On arrival to the clinic, subjects are allowed to rest for 20 minutes before baseline measurements of FEV1 (six recordings) and sGaw (five recordings) are made. Subjects receive a dry powder dispenser loaded with a dose of 2 mg theophylline or a dry powder carrier. […] After each inhalation, measurements of sGaw are made at 1, 3, 5, 10, 15, 20, 25, and 30 minutes.
On completion of the last recording, subjects inhale a 200 μg dose of salbutamol from a metered inhaler and a further measurement of sGaw is made after 15 minutes. Subjects are also monitored for coughing and are questioned about the taste of the drug.
as §1, with “Asthmatic patients” for “To test this theory, asthmatic patients”, “of 1” for “of 2”, “mg IBMX formulated as a dry powder” for “mg theophylline”
On completion of the last recording, subjects inhale a 200 μg dose of salbutamol from a metered inhaler and a further measurement of sGaw mad after 15 minutes. Subjects are also be monitored for coughing and are questioned about the taste of the drug.

[1] = system: patients with hyposmia and hypogeusia; test: Subjective changes in smell and taste function by questionnaire, scale 0 to 100 (Example 8); type: in vivo, human; settings: oral 200 to 800 mg/d; of 10 patients
Experimental: Subjective changes in smell and taste function under each study condition were measured by questionnaire before measurements of smell or taste function. Responses were graded on a scale from 0 to 100, with 0 reflecting no subjective response in overall sensory function; 100, return to normal sensory function; and values between 0 and 100 intermediate responses. Overall sensory function was defined as the ability to smell all odors and identify all tastants, although response intensity varied.
(§5) Values for the oral trial were taken from the last measurements made before discontinuation of oral drug treatment and before initiation of the intranasal trial. This period varied from 2 to 12 months after oral treatment initiation and reflected the maximal improvement in sensory function each patient experienced.

cGMP = test: Parotid saliva cGMP before and after oral theophylline (Example 2); type: in vivo, human; settings: mean ± SEM
Experimental: (§2) Parotid saliva was collected from each patient by application of a Lashley cup over Stensen's duct with lingual stimulation by placement of concentrated lemon juice. Saliva was collected in plastic tubes and stored at −20° C. until assayed. cAMP and cGMP were measured in saliva by a sensitive 96 plate spectrophotometric assay (R&D Systems, Minneapolis, Minn.).
(§3) All patients were placed in a fixed design open label clinical trial with treatment with oral theophylline. Treatment consisted of fixed treatment periods of two-eight months with sequential doses of the drug at 200 mg, 400 mg and 600 mg. At termination of each of these intervals, patients returned to study site for reevaluation. At the end of each interval subjective responses to treatment were measured with a modification of the 0-100 scale previously used (vs). Subjective responses to treatment were graded on a sliding scale from −100-0-+100 with patients recording improvement (+0-+100), no improvement (0) or worsening (0-−100) of their overall smell function. If overall smell function improved ≥5% they were considered to improve clinically (1). If smell function improved <5% they were considered not to improve (1). At the end of each interval subjective measurements of smell function, measurements of DT, RT, ME and H and measurements of parotid saliva for levels of cAMP and cGMP were obtained. In addition, blood plasma was obtained by venipuncture, placed in ice into zinc free tubes which contained 100 mg zinc free heparin, centrifuged at 3000 rpm for 10-20 min, the plasma transferred to plastic PCR tubes and stored at −20° C. until assayed. Theophylline was assayed by a fluorescence polarization assay (Abbott, Chicago, Ill.), as previously described.
(§4) Data for the cyclic nucleotides from these 31 patients was not analyzed until the entire study of the 312 patients in Example 1 was assembled and analyzed in its entirety. After completion of these analyses, all data for parotid saliva cAMP and cGMP from all patients in whom salivary cAMP and cGMP were obtained were assembled. Levels of salivary cyclic nucleotides varied widely. Initially, without external criteria, there was no way to understand these disparate data. […] In a similar manner, measurements of each patient's plasma theophylline level at each dosage of theophylline (at 200 mg, 400 mg, 600 mg of theophylline) were categorized. The two patient groups were also analyzed post hoc with respect to type of smell loss and etiology of smell loss.

[2] = asthma and COPD; cited from earlier work
cAMP = test: Parotid saliva cAMP before and after oral theophylline (Example 2); type: in vivo, human; settings: for parotid saliva cAMP: mean ± SEM
Experimental: as §2, §3, §4

patients with hyposmia = test: Classification of patients as improved or unimproved on theophylline (Example 2); type: in vivo, human
Experimental: as §3, §4
Differences in the characteristics between these two patient groups were analyzed with respect to each measurement obtained (Mean±SEM). Differences between mean±SEM were analyzed using Student t test and X2; differences of p≤5% were considered significant.

[3] = system: patients with hyposmia and hypogeusia; settings: oral 200 to 800 mg/d
Experimental: Smell and taste functions under each study condition were measured by standardized psychophysical sensory testing techniques. Measurements included determination of detection thresholds (DTs), recognition thresholds (RTs), magnitude estimation (ME), and hedonic response (HR) for 4 odors (e.g., pyridine [dead fish], nitrobenzene [bitter almond], thiophene [petroleum], and amyl acetate [banana oil]) (olfactometry) and for 4 tastants (e.g., sodium chloride [salt], sucrose [sweet], hydrochloride [sour], and urea [bitter]) (gustometry). […] Each measurement was performed independent of any prior knowledge of response.
as §5
The mean and standard error of the mean for all values obtained at each study condition were compared. Differences were considered significant if P<0.05 by the unpaired t test. Paired comparison tests were also used with differences considered significant if P<0.05 by the t test.

[4] = patients with unimproved smell function, oral 200 mg (9 patients)
[5] = of 31 patients on oral theophylline 200-600 mg

Cn1c(=O)c2[nH]cnc2n(C)c1=O [theophylline]
increase in sGaw compared with 200 μg salbutamol (asthmatic patients): comparable to that produced by salbutamol
sGaw above the baseline measurement after 30 minutes (asthmatic patients): 20%
taste and coughing of the dry powder formulation (asthmatic patients): without the unpleasant taste or the induction of coughing
time until sGaw baseline is reached (asthmatic patients): 1 h
patients reporting no improvement [1]: 4 patients
parotid saliva cGMP (cGMP; patients with improved smell function, oral 200 mg (15 patients)): 0.08 ± 0.016 pmol/mL
parotid saliva cGMP (cGMP; [4]): 0.07 ± 0.018 pmol/mL
parotid saliva cGMP (cGMP; patients with unimproved smell function, oral 400 mg (4 patients)): 0.05 ± 0.014 pmol/mL
parotid saliva cGMP (cGMP; patients with unimproved smell function, oral 600 mg (5 patients)): 0.04 ± 0.07 pmol/mL
concentrations at which anti-inflammatory effects are seen [2]: less than 10 mg/L
increase of saliva cAMP above baseline (cAMP; improved patients, oral 200 mg, not significant): 10%
increase of saliva cAMP over baseline (cAMP; improved patients, oral 400 mg, not statistically significant): 40%
increase of saliva cAMP above initial values (cAMP; improved patients, oral 600 mg, significant): 67%
parotid saliva cAMP (cAMP; patients with improved smell function, oral 200 mg (16 patients)): 0.96 ± 0.13 pmol/mL
parotid saliva cAMP (cAMP; [4]): 0.78 ± 0.26 pmol/mL
parotid saliva cAMP (cAMP; patients with unimproved smell function, oral 400 mg (5 patients)): 0.95 ± 0.26 pmol/mL
parotid saliva cAMP (cAMP; patients with unimproved smell function, oral 600 mg (9 patients)): 0.56 ± 0.21 pmol/mL
patients identified as having improved smell function (patients with hyposmia; [5]): 20 patients
patients who did not improve (patients with hyposmia; [5]): 11 patients
improved patients exhibiting Type II hyposmia (patients with hyposmia; oral theophylline, Example 2): 95%
patient number, improved, etiology PIHH (patients with hyposmia; oral theophylline, Example 2): 6
patient number, improved, etiology allergic rhinitis (AR) (patients with hyposmia; oral theophylline, Example 2): 8
patient number, improved, etiology head injury (HI) (patients with hyposmia; oral theophylline, Example 2): 3
patient number, improved, etiology other (patients with hyposmia; oral theophylline, Example 2): 3
patient number, improved, smell loss Type I (patients with hyposmia; oral theophylline, Example 2): 1
patient number, improved, smell loss Type II (patients with hyposmia; oral theophylline, Example 2): 19^a
patient number, unimproved, etiology PIHH (patients with hyposmia; oral theophylline, Example 2): 0
patient number, unimproved, etiology allergic rhinitis (AR) (patients with hyposmia; oral theophylline, Example 2): 8
patient number, unimproved, etiology head injury (HI) (patients with hyposmia; oral theophylline, Example 2): 3
patient number, unimproved, etiology other (patients with hyposmia; oral theophylline, Example 2): 0
patient number, unimproved, smell loss Type I (patients with hyposmia; oral theophylline, Example 2): 4
patient number, unimproved, smell loss Type II (patients with hyposmia; oral theophylline, Example 2): 7
unimproved patients exhibiting Type I hyposmia (patients with hyposmia; oral theophylline, Example 2): 57%
hyposmia (olfactometry overall) [3]: improved with 2 to 12 months of treatment
DTs and RTs for all odorants ([3]; 2 to 12 months): decreased (more sensitive)
HRs for all odorants ([3]; 2 to 12 months): increased
MEs for all odorants ([3]; 2 to 12 months): increased (more sensitive)
